# Experiments:
# Assay type in all cases: cell-based
# wild type K-Ras = biological target: T1, wild type K-Ras (Homo sapiens, UniProt P01116); experiment: G-LISA Ras activation, 293H cells transfected with Ras wild-type, EGF stimulated; settings: compound 1 hour, then 100 ng/ml EGF 2 minutes
# T1 construct: expressed in transfected cells; host or cells: 293H cells
# Outline: (§1)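 Mutant or wild-type Ras was expressed transiently in 293H cells, which were incubated 1 hour with compound across 3.125-25 μM. G-LISA on cold lysates gave Ras activation, wild-type cells having first been EGF-stimulated (100 ng/ml, 2 min).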
# K-Ras G12D = biological target: T2, K-Ras G12D (Homo sapiens, UniProt P01116, G12D); experiment: G-LISA Ras activation, 293H cells transfected with G12D mutant; settings: compound 1 hour
# T2 construct: expressed in transfected cells; host or cells: 293H cells
# T2 sequence (P01116 whole entry G12D): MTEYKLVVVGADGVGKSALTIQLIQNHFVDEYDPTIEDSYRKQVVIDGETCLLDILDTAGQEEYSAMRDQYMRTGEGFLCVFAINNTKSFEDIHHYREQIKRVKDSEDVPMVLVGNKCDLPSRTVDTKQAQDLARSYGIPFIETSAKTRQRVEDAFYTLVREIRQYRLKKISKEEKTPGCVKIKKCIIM
# Outline: as §1
# K-Ras G12V = biological target: T3, K-Ras G12V (Homo sapiens, UniProt P01116, G12V); experiment: G-LISA Ras activation, 293H cells transfected with G12V mutant; settings: compound 1 hour
# T3 construct: expressed in transfected cells; host or cells: 293H cells
# T3 sequence (P01116 whole entry G12V): as the sequence (P01116 whole entry G12D) above, with D12V counted along it
# Method: 293H cells were seeded in 6-wells at 0.6×10^6 cells per well and transfected next day with 5 μg of Ras wild-type, or G12C, G12D or G12V mutant DNA plasmid vector using transfection reagent Lipofectamine 3000. Next day cells were treated with 3.125-25 μM of Ras compounds for 1 hour. Wild-type transfected cells were subsequently treated with 100 ng/ml EGF for 2 minutes. Cells were washed once in ice-cold PBS, lysed in complete lysis buffer on ice, and processed by G-LISA according to Cytoskeleton protocol.
# [1] = test system: Ishikawa (K-Ras wild type cell line); experiment: Viability assay (CellTiterBlue, 72 hr) Ishikawa; settings: Homo sapiens, GI50, CellTiterBlue, Ishikawa K-Ras wild-type
# Outline: (§2)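 Fluorescence at Ex550/Em590, read 3 hr after CellTiterBlue addition, served as the viability signal following 72 hr compound treatment. Wells held 1000 cells, pre-incubated 18 hr at 37 °C, with 0.5% DMSO final. GI50 derived with DMSO as 100% and 100 uM tamoxifen as 0% viability.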
# [2] = test system: HCC827 (K-Ras wild type cell line); experiment: Viability assay (CellTiterBlue, 72 hr) HCC827; settings: Homo sapiens, GI50, CellTiterBlue, HCC827 K-Ras wild-type
# Outline: as §2
# Panc1-G12D = experiment: Viability assay (CellTiterBlue, 72 hr) Panc1; settings: Homo sapiens, PANC-1, GI50, CellTiterBlue, Panc1 K-Ras G12D, read-out: 72 hr Cell Viability Panc1 (G12D)
# Outline: as §2
# Panc10.05-G12D = experiment: Viability assay (CellTiterBlue, 72 hr) Panc10.05; settings: Homo sapiens, Panc1005, GI50, CellTiterBlue, Panc10.05 K-Ras G12D, read-out: 72 hr Cell Viability Panc10.05 (G12D)
# Outline: as §2
# HCT116-G31D = experiment: Viability assay (CellTiterBlue, 72 hr) HCT116; settings: Homo sapiens, HCT-116, GI50, CellTiterBlue, HCT116 K-Ras G13D, read-out: 72 hr Cell Viability HCT116 (G13D)
# Outline: as §2
# [3] = test system: phospho-ERK in HCC827 (Wild-type); experiment: In-Cell Western phospho-ERK, HCC827; settings: Homo sapiens, 1 h; HCC827, one hour treatment; read-out: In-Cell Western HCC827 (Wild-type) Erk (P)
# Outline: (§3)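 3000 cells/well, 18 hr pre-incubation; 1 hr compound exposure, 0.5% DMSO final. Formaldehyde fix, Triton permeabilization, primary Ab overnight 4° C, secondary 2 hr. Fluorescence imaging; EC50.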
# [4] = test system: phospho-ERK in A375 (Wild-type); experiment: In-Cell Western phospho-ERK, A375; settings: Homo sapiens, A-375, 1 h; A375, one hour treatment; read-out: In-Cell Western A375 (Wild-type) Erk (P)
# Outline: as §3
# [5] = test system: phospho-Akt in A375 (Wild-type); experiment: In-Cell Western phospho-Akt, A375; settings: Homo sapiens, A-375, 1 h; A375, one hour treatment; read-out: In-Cell Western A375 (Wild-type) Akt (P)
# Outline: as §3
# [6] = test system: phospho-ERK in Panc1 (G12D); experiment: In-Cell Western phospho-ERK, Panc1; settings: Homo sapiens, PANC-1, 1 h; Panc1, one hour treatment; read-out: In-Cell Western Panc1 (G12D) Erk (P)
# Outline: as §3
# [7] = test system: phospho-Akt in Panc1 (G12D); experiment: In-Cell Western phospho-Akt, Panc1; settings: Homo sapiens, PANC-1, 1 h; Panc1, one hour treatment; read-out: In-Cell Western Panc1 (G12D) Akt (P)
# Outline: as §3
# [8] = test system: phospho-ERK in Panc10.05 (G12D); experiment: In-Cell Western phospho-ERK, Panc10.05; settings: Homo sapiens, Panc1005, 1 h; Panc10.05, one hour treatment; read-out: In-Cell Western Panc10.05 (G12D) Erk (P)
# Outline: as §3
# [9] = test system: phospho-Akt in Panc10.05 (G12D); experiment: In-Cell Western phospho-Akt, Panc10.05; settings: Homo sapiens, Panc1005, 1 h; Panc10.05, one hour treatment; read-out: In-Cell Western Panc10.05 (G12D) Akt (P)
# Outline: as §3
# [10] = test system: U87-MG (K-Ras wild type cell line); experiment: Viability assay (CellTiterBlue, 72 hr) U87-MG; settings: Homo sapiens, U-87 MG, GI50, CellTiterBlue, U87-MG K-Ras wild-type
# Outline: as §2
# [11] = test system: phospho-Akt in HCC827 (Wild-type); experiment: In-Cell Western phospho-Akt, HCC827; settings: Homo sapiens, 1 h; HCC827, one hour treatment; read-out: In-Cell Western HCC827 (Wild-type) Akt (P)
# Outline: as §3
# [12] = test system: A375 (K-Ras wild type cell line); experiment: Viability assay (CellTiterBlue, 72 hr) A375; settings: Homo sapiens, A-375, GI50, CellTiterBlue
# Outline: as §2
# T1 sequence (P01116 whole entry): as the sequence (P01116 whole entry G12D) above, with D12G counted along it
Structure (SMILES),IC50 (wild type K-Ras),IC50 (K-Ras G12D),IC50 (K-Ras G12V),IC50 [1],IC50 [2],IC50 (Panc1-G12D),IC50 (Panc10.05-G12D),IC50 (HCT116-G31D),EC50 [3],EC50 [4],EC50 [5],EC50 [6],EC50 [7],EC50 [8],EC50 [9],IC50 [10],EC50 [11],IC50 [12]
"Cc1nc(C2CCC2)oc1C(=O)Nc1nc(-c2ccc3c(c2)CCC(=O)N3)cs1 [Compound 8, 2-cyclobutyl-4-methyl-N-(4-(2-oxo-1,2,3,4-tetrahydroquinolin-6-yl)thiazol-2-yl)oxazole-5-carboxamide]",15.5 µM,5.9 µM,> 25 µM,> 25 µM,> 25 µM,17 µM,1300 nM,> 25 µM,> 25 µM,> 25 µM,> 25 µM,> 25 µM,> 25 µM,2 µM,6 µM,–,–,–
"CCc1nc(C)c(C(=O)Nc2nc(-c3ccc4c(c3)CCC(=O)N4Cc3cccnc3)cs2)o1 [Compound 64, 2-ethyl-4-methyl-N-(4-(2-oxo-1-(pyridin-3-ylmethyl)-1,2,3,4-tetrahydroquinolin-6-yl)thiazol-2-yl)oxazole-5-carboxamide]",> 25 µM,3 µM,9.6 µM,3.5 µM,10 µM,5 µM,2000 nM,5 µM,7 µM,–,–,5 µM,6 µM,9 µM,> 25 µM,2 µM,15 µM,–
"Cc1nc(C2CC2)oc1C(=O)Nc1nc(-c2ccc3c(c2)CCC(=O)N3Cc2ccccc2)cs1 [Compound 58, N-(4-(1-benzyl-2-oxo-1,2,3,4-tetrahydroquinolin-6-yl)thiazol-2-yl)-2-cyclopropyl-4-methyloxazole-5-carboxamide]",20.4 µM,5.2 µM,21.6 µM,2.3 µM,–,1.7 µM,3400 nM,4 µM,–,–,–,–,6 µM,–,3 µM,4 µM,–,–
"Cc1nc(C2CC2)oc1C(=O)Nc1nc(-c2ccc3c(c2)CCC(=O)N3)cs1 [Compound 6, 2-cyclopropyl-4-methyl-N-(4-(2-oxo-1,2,3,4-tetrahydroquinolin-6-yl)thiazol-2-yl)oxazole-5-carboxamide]",10.6 µM,7.3 µM,19.4 µM,10 µM,–,2.4 µM,3600 nM,> 25 µM,–,–,–,4 µM,–,2 µM,3 µM,5 µM,–,–
"CCc1nc(C)c(C(=O)Nc2nc(-c3ccc4c(c3)CCC(=O)N4Cc3ccccn3)cs2)o1 [Compound 63, 2-ethyl-4-methyl-N-(4-(2-oxo-1-(pyridin-2-ylmethyl)-1,2,3,4-tetrahydroquinolin-6-yl)thiazol-2-yl)oxazole-5-carboxamide]",> 25 µM,5.6 µM,9.8 µM,4 µM,5 µM,5 µM,2000 nM,4 µM,6 µM,–,–,3 µM,4 µM,7 µM,> 25 µM,1.5 µM,10 µM,–
"Cc1nc(C(C)C)oc1C(=O)Nc1nc(-c2ccc3c(c2)CCC(=O)N3)cs1 [Compound 7, 2-isopropyl-4-methyl-N-(4-(2-oxo-1,2,3,4-tetrahydroquinolin-6-yl)thiazol-2-yl)oxazole-5-carboxamide]",11.7 µM,4.8 µM,> 25 µM,> 25 µM,> 25 µM,8 µM,2000 nM,> 25 µM,> 25 µM,> 25 µM,> 25 µM,> 25 µM,> 25 µM,4 µM,8 µM,> 25 µM,–,> 25 µM
"Cc1nc(C)c(C(=O)Nc2nc(-c3ccc4c(c3)CCC(=O)N4CC3CCCOC3)cs2)o1 (stereo not shown) [Compound 66, 2,4-dimethyl-N-(4-(2-oxo-1-((tetrahydro-2H-pyran-3-yl)methyl)-1,2,3,4-tetrahydroquinolin-6-yl)thiazol-2-yl)oxazole-5-carboxamide]",11.1 µM,4.5 µM,6.5 µM,2 µM,4 µM,6 µM,2000 nM,3 µM,4 µM,–,–,3 µM,2 µM,3 µM,18 µM,–,15 µM,–

# — patent publication US10344026B2, “Compositions and methods of targeting mutant K-ras” (NANTBIO, INC., priority 2017, dated 2019)
